{
  "source": "patent US12195479B2",
  "about": "“Five- and six-membered compound, and preparation method therefor and pharmaceutical composition and use thereof” (HANGZHOU POLYMED BIOPHARMACEUTICALS, INC., priority 2021, dated 2025)",
  "key": {"IRAK4 kinase": {"biological_target": "T1, IRAK4 kinase (Homo sapiens, UniProt Q9NWZ3)", "T1 sequence (Q9NWZ3 1-460)": "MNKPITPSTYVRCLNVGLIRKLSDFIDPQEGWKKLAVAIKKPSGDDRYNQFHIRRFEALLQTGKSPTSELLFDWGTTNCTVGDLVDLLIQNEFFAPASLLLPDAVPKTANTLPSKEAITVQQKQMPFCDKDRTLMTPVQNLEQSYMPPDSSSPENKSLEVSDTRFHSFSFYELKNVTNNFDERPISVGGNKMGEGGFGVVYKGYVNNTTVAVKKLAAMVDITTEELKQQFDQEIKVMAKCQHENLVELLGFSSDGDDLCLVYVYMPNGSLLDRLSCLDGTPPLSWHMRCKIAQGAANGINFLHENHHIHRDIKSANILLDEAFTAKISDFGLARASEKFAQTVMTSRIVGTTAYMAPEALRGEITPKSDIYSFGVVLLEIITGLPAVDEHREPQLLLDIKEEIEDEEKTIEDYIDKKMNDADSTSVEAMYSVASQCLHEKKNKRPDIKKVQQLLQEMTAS", "assay": "Kinase inhibition, fluorescence microfluidic mobility shift assay (IRAK4)", "assay_type": "biochemical", "conditions": "substrate peptide FAM-P8 3 μM, ATP 10 μM; one hour at 28° C.; assayed in duplicate"}, "MV4-11 cells": {"system": "MV4-11 cells", "assay": "Cytotoxicity against MV4-11 cells (CellTiter-Glo)", "assay_type": "cell-based", "conditions": "Homo sapiens, incubated for 72 hours, CellTiter-Glo chemiluminescence", "method": "Determination of the IC50 Value of the Compound's Cytotoxicity Against MV4-11 Cells\nMV-4-11 cells were cultured with IMDM complete medium (IMDM+10% fetal bovine serum+1% Penicillin-Streptomycin, a mixture of penicillin-streptomycin). • 2. MV-4-11 cells in good condition were collected and washed twice with DPBS ([…] phosphate buffered saline solution). • 3. MV-4-11 cells were resuspended with IMDM complete medium, the cell density was adjusted to 1.11×10^6 cells/mL, and the MV-4-11 cells were added to 96-well plates at 90 μL per well. • 4. A compound solution with 10-fold concentration was prepared with IMDM complete medium, 10 μL of the compound solution with 10-fold concentration was added to the cells in the 96-well plate, mixed well, and then the 96-well plate was placed in a 5% CO2 incubator at 37° C. and incubated for 72 hours. • 5. After the incubation, the 96-well plate was taken out and equilibrated for 30 minutes at room temperature. Then 100 μL of CellTiter Glo reagent was added to each well and mixed on a horizontal shaker for 2 minutes. • 6. The 96-well plate was removed, equilibrated at room temperature for 10 minutes, and the chemiluminescence value was detected on a microplate reader."}, "FLT3 kinase": {"biological_target": "T2, FLT3 kinase (Homo sapiens, UniProt P36888)", "T2 sequence (P36888 564-993)": "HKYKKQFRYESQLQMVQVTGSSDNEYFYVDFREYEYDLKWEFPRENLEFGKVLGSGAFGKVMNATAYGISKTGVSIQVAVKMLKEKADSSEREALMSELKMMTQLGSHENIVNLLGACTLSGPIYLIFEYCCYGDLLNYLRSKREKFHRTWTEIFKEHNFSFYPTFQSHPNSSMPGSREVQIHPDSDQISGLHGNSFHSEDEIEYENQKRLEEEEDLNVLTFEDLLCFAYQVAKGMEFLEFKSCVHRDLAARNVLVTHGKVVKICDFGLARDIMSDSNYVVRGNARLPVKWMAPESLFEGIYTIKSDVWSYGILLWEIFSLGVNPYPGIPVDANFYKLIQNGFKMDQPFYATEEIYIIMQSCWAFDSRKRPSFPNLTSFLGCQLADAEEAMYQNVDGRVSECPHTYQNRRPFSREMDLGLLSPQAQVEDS", "assay": "Kinase inhibition, fluorescence microfluidic mobility shift assay (FLT3)", "assay_type": "biochemical", "conditions": "substrate peptide FAM-P2 3 μM, ATP 97 μM; one hour at 28° C.; assayed in duplicate", "experimental": "Based on the experimental method of fluorescence microfluidic mobility shift assay, the IC50 value of the compound for competitive binding of ATP to kinases IRAK4 and FLT3 was determined. The initial detection concentration of the compound was 10 μM, which was diluted to 0.38 nM with a 4-fold gradient and assayed in duplicate. In this case, commercially available staurosporine was the standard control for the assay.\nInformation on reagents and consumables is as follows: • IRAK4 kinase (Carna, Cat. No. 09-145, Lot. No. 14CBS-0020 H) • FLT3 kinase (Carna, Cat. No. 08-154, Lot. No. 07CBS-2350) • Substrate peptide FAM-P2 (GL Biochem, Cat. No. 112394, Lot. No. P131014-XP112394) • Substrate peptide FAM-P8 (GL Biochem, Cat. No. 112396, Lot. No. P170731-SY112396) • ATP (adenosine triphosphate, Sigma, Cat. No. A7699-1G, CAS No. 987-65-5) • DMSO (dimethyl sulfoxide, Sigma, Cat. No. D2650) • EDTA (ethylenediaminetetraacetic acid, Sigma, Cat. No. E5134, CAS No. 60-00-4) • Staurosporine (Selleckchem, Cat. No. 51421) • HEPES (4-(2-Hydroxyethyl)-1-piperazineethanesulfonic acid, Gibco, Cat. No. 15630-080) • Brij-35 solution (Polyoxyethylene lauryl ether, Sigma, Cat. No. B41840-100 mL) • DTT (dithiothreitol, Sigma, Cat. No. D0632-20G) • 0.2% Coating Reagent #3 (0.2% coating reagent, Perkin Elmer, Cat. No. 760050) • 96-well plate (Corning, Cat. No. 3365) • 384-well plate (Corning, Cat. No. 3573) Experimental operation method: • 1) FLT3 and IRAK4 kinases were dissolved in the kinase buffer (50 mM HEPES pH 7.5, 10 mM MgCl2, 2 mM DTT, and 0.01% Brij-35) at final concentrations of 0.9 nM, 30 nM, and 6 nM, respectively. • 2) The substrate peptide FAM-P2 and the substrate peptide FAM-P8, together with ATP, were dissolved in the above kinase buffer, respectively, where the final concentrations of the substrate peptide FAM-P2 and ATP for the determination of FLT3 were 3 μM and 97 μM, respectively; and the final concentrations of the substrate peptide FAM-P8 and ATP for the determination of IRAK4 were 3 μM and 10 μM, respectively. • 3) Compound dilution: The compound was first diluted to 50 μM, and then diluted downward with DMSO in a 4-fold gradient. In this case, the solution without compound and kinase served as the blank control, corresponding to the “minimum value” shown below; the solution without compound but containing kinase, adenosine triphosphate, DMSO, and the buffer served as the positive control, corresponding to the “maximum value” shown below. • 4) Kinase reaction and termination: 10 μL of the kinase buffer was added to a 384-well plate containing 5 μL of the compound to be tested, and the mixture was incubated for 10 minutes at room temperature; another 10 μL, of buffer containing the substrate peptide and adenosine triphosphate was added to the 384-well plate, and after incubation for one hour at 28° C., 25 μL, of termination solution (100 mM HEPES pH 7.5, 50 mM EDTA, 0.2% Coating Reagent #3, and 0.015% Brij-35) was added to each well for reaction termination. • 5) Data reading: CaliperEZ Reader II instrument was used to read the conversion rate data. Setting conditions: downstream voltage as −500 V, upstream voltage as −2250 V, base pressure as −0.5 PSI, and screening pressure as −1.2 PSI. • 6) Data calculation: the conversion rate data was copied from CaliperEZ Reader II, and the conversion rate was converted into inhibition rate data."}},
  "data": [
    {"smiles": "COc1cc2nn(C3CCNCC3)cc2cc1NC(=O)c1coc(N2CCN(C(C)=O)CC2)n1", "note": "[II-6]", "values": [
      {"measurement": "IC50", "setting": "IRAK4 kinase", "result": 178, "unit": "nM"}
    ]},
    {"smiles": "Cc1cc(-c2nc(C(=O)Nc3cc4cn(C5CC(C)(C)OC(C)(C)C5)nc4cc3C(C)(C)O)co2)ccn1", "note": "[II-116]", "values": [
      {"measurement": "IC50", "setting": "IRAK4 kinase", "result": 7.54, "unit": "nM"},
      {"measurement": "IC50", "setting": "MV4-11 cells", "result": 27.3, "unit": "nM"}
    ]},
    {"smiles": "COc1cc2nn(C3CCNCC3)cc2cc1NC(=O)c1coc(N2CCS(=O)(=O)CC2)n1", "note": "[II-7C]", "values": [
      {"measurement": "IC50", "setting": "FLT3 kinase", "result": 100, "unit": "nM"},
      {"measurement": "IC50", "setting": "IRAK4 kinase", "result": 94, "unit": "nM"}
    ]},
    {"smiles": "CC(C)(O)CCc1cc2cc(NC(=O)c3coc(-c4ccnc(C(F)(F)F)c4)n3)c(C(C)(C)O)cn2n1", "note": "[II-92]", "values": [
      {"measurement": "IC50", "setting": "FLT3 kinase", "result": 15.5, "unit": "nM"},
      {"measurement": "IC50", "setting": "IRAK4 kinase", "result": 4.86, "unit": "nM"},
      {"measurement": "IC50", "setting": "MV4-11 cells", "result": 63.2, "unit": "nM"}
    ]},
    {"smiles": "Cc1cc(-c2nc(C(=O)Nc3cc4cn(CCC5CCNC5=O)nc4cc3C(C)(C)O)co2)ccn1", "note": "(stereo not drawn) [II-1]", "values": [
      {"measurement": "IC50", "setting": "FLT3 kinase", "result": 0.34, "unit": "nM"},
      {"measurement": "IC50", "setting": "IRAK4 kinase", "result": 11, "unit": "nM"},
      {"measurement": "IC50", "setting": "MV4-11 cells", "result": 19.4, "unit": "nM"}
    ]},
    {"smiles": "Cc1cc(-c2nc(C(=O)Nc3cc4sc(N5CCOCC5)nc4nc3C(C)(C)O)co2)ccn1", "note": "[II-124]", "values": [
      {"measurement": "IC50", "setting": "FLT3 kinase", "result": 0.31, "unit": "nM"},
      {"measurement": "IC50", "setting": "IRAK4 kinase", "result": 4.8, "unit": "nM"},
      {"measurement": "IC50", "setting": "MV4-11 cells", "result": 5, "unit": "nM"}
    ]},
    {"smiles": "COc1cc2nn(C3CCS(=N)(=O)CC3)cc2cc1NC(=O)c1coc(-c2ccnc(C)c2)n1", "note": "(stereo not drawn) [II-95]", "values": [
      {"measurement": "IC50", "setting": "FLT3 kinase", "result": 0.47, "unit": "nM"},
      {"measurement": "IC50", "setting": "IRAK4 kinase", "result": 12, "unit": "nM"},
      {"measurement": "IC50", "setting": "MV4-11 cells", "result": 18, "unit": "nM"}
    ]},
    {"smiles": "Cc1cc(-c2nc(C(=O)Nc3cc4oc(N5CCC(F)(F)CC5)nc4nc3N3CCC(O)C3)co2)ccn1", "note": "(stereo not drawn) [II-129]", "values": [
      {"measurement": "IC50", "setting": "FLT3 kinase", "result": 11, "unit": "nM"},
      {"measurement": "IC50", "setting": "IRAK4 kinase", "result": 57, "unit": "nM"},
      {"measurement": "IC50", "setting": "MV4-11 cells", "result": 49.6, "unit": "nM"}
    ]},
    {"smiles": "Cc1cc(-c2nc(C(=O)Nc3cc4cn(CC5(F)CN(C(=O)OC(C)(C)C)C5)nc4cc3C(C)(C)O)co2)ccn1", "note": "[II-107]", "values": [
      {"measurement": "IC50", "setting": "FLT3 kinase", "result": 0.73, "unit": "nM"},
      {"measurement": "IC50", "setting": "IRAK4 kinase", "result": 9.22, "unit": "nM"}
    ]},
    {"smiles": "Cc1cc(-c2nc(C(=O)Nc3cc4cn(C5CCNCC5)nc4cc3OC(C)C)co2)ccn1", "note": "[II-14C]", "values": [
      {"measurement": "IC50", "setting": "FLT3 kinase", "result": 0.72, "unit": "nM"},
      {"measurement": "IC50", "setting": "IRAK4 kinase", "result": 7.5, "unit": "nM"},
      {"measurement": "IC50", "setting": "MV4-11 cells", "result": 0.25, "unit": "nM"}
    ]},
    {"smiles": "Cc1cc(-n2ccc(C(=O)Nc3cc4oc(N5CCOCC5)nc4nc3N3CCC(O)C3)n2)ccn1", "note": "(stereo not drawn) [II-123]", "values": [
      {"measurement": "IC50", "setting": "IRAK4 kinase", "result": 122, "unit": "nM"}
    ]},
    {"smiles": "CC(C)(O)c1cc2nn([C@H]3CC[C@@H](O)CC3)cc2cc1NC(=O)c1coc(-c2ccnc(C(F)(F)F)c2)n1", "note": "[II-112]", "values": [
      {"measurement": "IC50", "setting": "FLT3 kinase", "result": 2.8, "unit": "nM"},
      {"measurement": "IC50", "setting": "IRAK4 kinase", "result": 6.96, "unit": "nM"},
      {"measurement": "IC50", "setting": "MV4-11 cells", "result": 11.9, "unit": "nM"}
    ]},
    {"smiles": "Cc1cc(-c2nc(C(=O)Nc3cc4cc(CCC(C)(C)O)nn4cc3C(C)(C)O)co2)ccn1", "note": "[II-28]", "values": [
      {"measurement": "IC50", "setting": "FLT3 kinase", "result": 0.79, "unit": "nM"},
      {"measurement": "IC50", "setting": "IRAK4 kinase", "result": 16, "unit": "nM"},
      {"measurement": "IC50", "setting": "MV4-11 cells", "result": 3.1, "unit": "nM"}
    ]},
    {"smiles": "Cc1cc(-c2nc(C(=O)Nc3cc4cn(C5CC6CCC(C5)N6)nc4cc3C(C)(C)O)co2)ccn1", "note": "(stereo not drawn) [II-100]", "values": [
      {"measurement": "IC50", "setting": "FLT3 kinase", "result": 0.62, "unit": "nM"},
      {"measurement": "IC50", "setting": "IRAK4 kinase", "result": 22, "unit": "nM"},
      {"measurement": "IC50", "setting": "MV4-11 cells", "result": 9, "unit": "nM"}
    ]},
    {"smiles": "Cc1cc(-c2nc(C(=O)Nc3cc4cn(C5CCS(=O)(=O)CC5)nc4cc3C(C)(C)O)co2)ccn1", "note": "[II-57]", "values": [
      {"measurement": "IC50", "setting": "FLT3 kinase", "result": 0.3, "unit": "nM"},
      {"measurement": "IC50", "setting": "IRAK4 kinase", "result": 6.5, "unit": "nM"},
      {"measurement": "IC50", "setting": "MV4-11 cells", "result": 13, "unit": "nM"}
    ]},
    {"smiles": "Cc1cc(-c2nc(C(=O)Nc3cc4cn(C5CC6CCC(C5)N6C)nc4cc3C(C)(C)O)co2)ccn1", "note": "(stereo not drawn) [II-101]", "values": [
      {"measurement": "IC50", "setting": "FLT3 kinase", "result": 0.48, "unit": "nM"},
      {"measurement": "IC50", "setting": "IRAK4 kinase", "result": 22, "unit": "nM"},
      {"measurement": "IC50", "setting": "MV4-11 cells", "result": 7, "unit": "nM"}
    ]},
    {"smiles": "Cc1cc(-c2nc(C(=O)Nc3cc4cn(CCN5CC6CC5CO6)nc4cc3C(C)(C)O)co2)ccn1", "note": "(stereo not drawn) [II-110]", "values": [
      {"measurement": "IC50", "setting": "FLT3 kinase", "result": 0.36, "unit": "nM"},
      {"measurement": "IC50", "setting": "IRAK4 kinase", "result": 8.16, "unit": "nM"}
    ]},
    {"smiles": "CC(C)(O)CCn1cc2cc(NC(=O)c3coc(-c4ccnc(C(F)(F)F)c4)n3)c(C(C)(C)O)nc2n1", "note": "[II-131]", "values": [
      {"measurement": "IC50", "setting": "IRAK4 kinase", "result": 20, "unit": "nM"}
    ]},
    {"smiles": "Cc1cc(-c2nc(C(=O)Nc3cc4oc(N5CCC(C(F)(F)F)CC5)nc4nc3N3CCC(O)C3)co2)ccn1", "note": "(stereo not drawn) [II-130]", "values": [
      {"measurement": "IC50", "setting": "FLT3 kinase", "result": 8.9, "unit": "nM"},
      {"measurement": "IC50", "setting": "IRAK4 kinase", "result": 26, "unit": "nM"}
    ]},
    {"smiles": "Cc1cc(-c2nc(C(=O)Nc3cc4cn(CCC5CCNC5=O)nc4cc3OC3COC3)co2)ccn1", "note": "(stereo not drawn) [II-64]", "values": [
      {"measurement": "IC50", "setting": "IRAK4 kinase", "result": 4.5, "unit": "nM"},
      {"measurement": "IC50", "setting": "MV4-11 cells", "result": 1.3, "unit": "nM"}
    ]},
    {"smiles": "CC(C)(O)CCn1cc2cc(NC(=O)c3ccn(-c4ccnc(C(F)(F)F)c4)n3)c(C(C)(C)O)cc2n1", "note": "[II-105]", "values": [
      {"measurement": "IC50", "setting": "FLT3 kinase", "result": 39, "unit": "nM"},
      {"measurement": "IC50", "setting": "IRAK4 kinase", "result": 2.63, "unit": "nM"}
    ]},
    {"smiles": "COc1cc2nn(C3CCNCC3)cc2cc1NC(=O)c1coc(-c2ccccc2)n1", "note": "[II-9C]", "values": [
      {"measurement": "IC50", "setting": "IRAK4 kinase", "result": 9.4, "unit": "nM"}
    ]}
  ]
}
